Entries after “also recorded” stand apart in the source; their conditions may differ. Read-outs that look alike come from different tables or passages of the source.
Key:
SIRT2 [1] = target: T1, SIRT2 (Homo sapiens, UniProt Q8IXJ6); assay: SIRT2 enzymatic assay with fluorogenic p53 peptide substrate RHKK(Ac)-AMC; assay type: biochemical; conditions: for increase in potency over 9a: SIRT2 IC50 ratio to 9a
T1 sequence (Q8IXJ6 1-389): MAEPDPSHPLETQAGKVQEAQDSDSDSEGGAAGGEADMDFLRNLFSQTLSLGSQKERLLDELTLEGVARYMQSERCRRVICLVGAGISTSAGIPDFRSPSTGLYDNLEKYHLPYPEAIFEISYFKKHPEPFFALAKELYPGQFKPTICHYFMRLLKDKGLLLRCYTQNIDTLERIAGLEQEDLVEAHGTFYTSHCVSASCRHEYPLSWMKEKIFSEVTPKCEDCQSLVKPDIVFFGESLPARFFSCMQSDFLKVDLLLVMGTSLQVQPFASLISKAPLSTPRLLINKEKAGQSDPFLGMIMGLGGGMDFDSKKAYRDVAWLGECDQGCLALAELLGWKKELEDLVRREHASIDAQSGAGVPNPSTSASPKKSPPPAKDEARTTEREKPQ
Protocol: The newly synthesized analogues, based on our previously validated thienopyrimidinone scaffold, were designed to contain a variety of N-3 (columns a–i, Table 1) and N-7′ substituents (rows 9–49, Table 1), with the aim to conduct a relatively broad survey of the SAR features of this scaffold. These compounds were all synthesized according to the previously disclosed method[81] (Schemes SS1 and SS2, Supporting Information) and assessed as racemates. SIRT2 inhibitory activity was assessed using a validated SIRT2 assay, based on a fluorogenic peptide substrate derived from p53 (see Experimental Section). For this assay, suramin was used as a positive control and gave similar inhibitory activity to that observed previously.[83] A vehicle (DMSO) was used as the negative control. SIRT2 inhibitory activity was measured at two compound concentrations, 1 μM (n = 2) and 10 μM (n = 2) for all compounds.
Enzymatic assays were performed by Reaction Biology Corporation (http://www.reactionbiology.com) as described before.[81] In vitro SIRT assays were conducted by using the fluorogenic peptide substrate from p53 residues 379–382 RHKK(Ac)-AMC for SIRT1–3. The assay buffer contained 50 mM Tris-HCl, pH 8.0, 137 mM NaCl, 2.7 mM KCl, 1 mM MgCl2, 1 mg mL^–1 bovine serum albumin, and 1% DMSO. The protocol involved a two-step procedure. The fluorogenic substrate with the acetylated lysine side chain was incubated with the SIRT enzyme to produce the deacetylated products, which were then digested in the second step by the addition of a developer to produce the fluorescent signal proportional to the amount of deacetylated substrates. Deacetylation of substrate peptides was used as a read out of the SIRT activity. All compounds were freshly prepared as 10 mM stock solutions in DMSO and serially diluted to the indicated concentration in the reaction. All test compounds were preincubated with the human SIRTs for about 10 min before commencing the reaction through the addition of substrate. Fluorescence was read (λex, 360 nm; λem, 460 nm) using an EnVision Multilabel Plate Reader (PerkinElmer). The percentages of enzyme activity (relative to DMSO controls) and IC50 values were calculated using the GraphPad Prism 4 program based on a sigmoidal dose–response equation. The number of replicates is stated in the corresponding text.

SIRT1 [2] = target: T2, SIRT1 (Homo sapiens, UniProt Q96EB6); assay: SIRT1 enzymatic assay with fluorogenic p53 peptide substrate RHKK(Ac)-AMC; assay type: biochemical; conditions: Table 3
T2 sequence (Q96EB6 1-747): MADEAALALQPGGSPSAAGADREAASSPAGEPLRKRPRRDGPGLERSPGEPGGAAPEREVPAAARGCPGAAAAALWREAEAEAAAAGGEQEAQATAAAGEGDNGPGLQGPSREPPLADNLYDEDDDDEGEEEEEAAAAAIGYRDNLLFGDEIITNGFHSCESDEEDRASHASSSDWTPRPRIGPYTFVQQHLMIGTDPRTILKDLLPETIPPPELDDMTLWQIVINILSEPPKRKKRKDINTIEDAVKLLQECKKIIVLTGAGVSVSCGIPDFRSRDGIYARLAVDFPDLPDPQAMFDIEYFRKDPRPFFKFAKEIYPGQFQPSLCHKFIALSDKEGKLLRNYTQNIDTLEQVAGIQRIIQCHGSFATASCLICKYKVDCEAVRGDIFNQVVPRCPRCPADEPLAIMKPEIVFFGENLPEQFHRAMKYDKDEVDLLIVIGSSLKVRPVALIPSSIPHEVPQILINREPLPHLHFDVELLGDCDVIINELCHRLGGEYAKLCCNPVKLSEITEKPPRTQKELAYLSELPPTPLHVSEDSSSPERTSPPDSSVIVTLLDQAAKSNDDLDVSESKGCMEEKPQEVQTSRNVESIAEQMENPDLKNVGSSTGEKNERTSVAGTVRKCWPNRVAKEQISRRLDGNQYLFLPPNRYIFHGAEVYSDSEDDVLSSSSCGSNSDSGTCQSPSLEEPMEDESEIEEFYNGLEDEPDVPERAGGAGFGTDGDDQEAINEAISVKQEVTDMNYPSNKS

SIRT3 [3] = target: T3, SIRT3 (Homo sapiens, UniProt Q9NTG7); assay: SIRT3 enzymatic assay with fluorogenic p53 peptide substrate RHKK(Ac)-AMC; assay type: biochemical; conditions: Table 3
T3 sequence (Q9NTG7 1-399): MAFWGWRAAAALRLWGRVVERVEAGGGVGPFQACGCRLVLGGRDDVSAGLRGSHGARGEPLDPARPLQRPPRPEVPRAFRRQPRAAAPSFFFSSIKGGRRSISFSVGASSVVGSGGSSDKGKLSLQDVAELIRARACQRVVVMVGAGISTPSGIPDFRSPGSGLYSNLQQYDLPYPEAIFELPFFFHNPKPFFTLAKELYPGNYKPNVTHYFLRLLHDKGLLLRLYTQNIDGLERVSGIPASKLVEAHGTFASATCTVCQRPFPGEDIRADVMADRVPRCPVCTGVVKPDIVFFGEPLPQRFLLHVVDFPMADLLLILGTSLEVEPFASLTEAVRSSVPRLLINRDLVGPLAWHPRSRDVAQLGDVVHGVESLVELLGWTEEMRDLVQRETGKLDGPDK

[4] = test system: acetylated (lysine-40) α-tubulin in MCF-7 cells; assay: Tubulin acetylation assay, Western blot in MCF-7 cells with TSA; conditions: 0-50 μM for 24 h with 50 nM TSA, N = 3
SIRT1 [5] = conditions: Figure 1, cited from earlier work; for IC50: differing in vitro assays and conditions
SIRT2 [6] = test system: SIRT2; parameters: method as in PMID 15780941, PMID 26982234, PMID 25275824, PMID 11483616, PMID 16618762; conditions: Figure 1; differing in vitro assays and conditions; cited from earlier work
SIRT3 [7] = conditions: Figure 1, cited from earlier work
SIRT6 = test system: SIRT6; parameters: method as in PMID 25672491; conditions: Figure 1; cited from earlier work
[8] = supplement CSV, SIRT2, 10uM, read-out: Inhibition@10uM

Compound: 6-(2-Aminoethyl)-3-((2-methoxynaphthalen-1-yl) methyl)-5-methylthieno [2,3-d] pyrimidin-4(3H)-one [56a]
- SIRT2 inhibitory activity (in words) (SIRT2 [1]): inactive
- SIRT2 percentage inhibition (at 10 μM) (SIRT2 [1]; Table 2 middle value, 10 μM compound): 25%
- Inhibition@10uM (SIRT2 [1]; supplement CSV, SIRT2, 10uM): 24.87

Compound: COc1ccc(Cn2cnc3sc4c(c3c2=O)CCC(NCc2cccc(Cl)c2)C4)c2ccccc12 (stereo not shown) [12c]
- inhibition at 10 µM (SIRT2 [1]; 10 μM compound, n = 2, read-out: SIRT2 percentage inhibition (at 10 μM)): -6.5%
- inhibition at 10 µM (SIRT2 [1]; [8]): -6.5%

Compound: N#Cc1ccc(CNC2CCc3c(sc4ncn(Cc5cccc6cccnc56)c(=O)c34)C2)cc1 (stereo not shown) [15e, 4-(((4-Oxo-3-(quinolin-8-ylmethyl)-3,4,5,6,7,8-hexahydrobenzo[4,5]thieno[2,3-d]pyrimidin-7-yl)amino)methyl)benzonitrile]
- SIRT2 selectivity over SIRT1 (SIRT1 [2]): more than 100 fold
- SIRT2 selectivity over SIRT3 (SIRT3 [3]): more than 100 fold
- SIRT2/SIRT3 selectivity (SIRT3 [3]; ratio of IC50 values): >256

Compound: COc1ccccc1CNC1CCc2c(sc3ncn(Cc4c(OC)ccc5ccccc45)c(=O)c23)C1 (stereo not shown) [16a]
- increase in potency over 9a (SIRT2 [1]): 9 fold

Compound: COc1ccc(CNC2CCc3c(sc4ncn(Cc5c(OC)ccc6ccccc56)c(=O)c34)C2)cc1 (stereo not shown) [18a]
- increase in potency over 9a (SIRT2 [1]): 32 fold

Compound: O=c1c2c3c(sc2ncn1Cc1ccccc1)CC(NCc1ccncc1)CC3 (stereo not shown) [20g]
- inhibition at 10 µM (SIRT2 [1]; [8]): 32.6%

Compound: COc1cccc(Cn2cnc3sc4c(c3c2=O)CCC(NCc2ccncc2)C4)c1 (stereo not shown) [20h]
- inhibition at 10 µM (SIRT2 [1]; [8]): 57.6%

Compound: COc1cccc(Cn2cnc3sc4c(c3c2=O)CCC(NCc2ccccn2)C4)c1 (stereo not shown) [21h]
- inhibition at 10 µM (SIRT2 [1]; [8]): 18.2%

Compound: O=c1c2c3c(sc2ncn1Cc1ccccc1)CC(NCc1cncnc1)CC3 (stereo not shown) [22g]
- inhibition at 10 µM (SIRT2 [1]; [8]): 17.5%

Compound: COc1cccc(Cn2cnc3sc4c(c3c2=O)CCC(NCc2cncnc2)C4)c1 (stereo not shown) [22h]
- inhibition at 10 µM (SIRT2 [1]; [8]): 18.3%

Compound: COc1ccc(CNC2CCc3c(sc4ncn(Cc5c(OC)ccc6ccccc56)c(=O)c34)C2)cn1 (stereo not shown) [23a]
- inhibition at 10 µM (SIRT2 [1]; [8]): 87.9%

Compound: O=c1c2c3c(sc2ncn1Cc1ccccc1)CC(NCC1CCCO1)CC3 (stereo not shown) [25g]
- SIRT2 inhibitory activity (in words) (SIRT2 [1]): lacking in vitro activity against SIRT2
- effect on α-tubulin acetylation level [4]: no effect on tubulin acetylation levels; also recorded: showed no effect on the acetylation of α-tubulin

Compound: COc1cccc(Cn2cnc3sc4c(c3c2=O)CCC(NCC2CCCO2)C4)c1 (stereo not shown) [25h]
- inhibition at 10 µM (SIRT2 [1]; [8]): 3.44%

Compound: COc1cccc(Cn2cnc3sc4c(c3c2=O)CCC(NCc2c(C)nn(C)c2C)C4)c1 (stereo not shown) [27h]
- inhibition at 10 µM (SIRT2 [1]; [8]): 14.4%

Compound: COc1cccc(Cn2cnc3sc4c(c3c2=O)CCC(NCc2ccco2)C4)c1 (stereo not shown) [28h]
- inhibition at 10 µM (SIRT2 [1]; [8]): 33.4%

Compound: COc1ccc(Cn2cnc3sc4c(c3c2=O)CCC(NCc2c(C)noc2C)C4)c2ccccc12 (stereo not shown) [29c]
- SIRT2 selectivity over SIRT1 (SIRT1 [2]): > 200 fold
- SIRT2 selectivity over SIRT3 (SIRT3 [3]): ~30 fold
- effect on α-tubulin acetylation level [4]: increased levels of α-tubulin acetylation in a dose dependent manner; also recorded: increased the α-tubulin acetylation level at 10 μM and retained consistent to 50 μM

Compound: O=c1c2c3c(sc2ncn1Cc1ccccc1)CC(NCCc1cccnc1)CC3 (stereo not shown) [31g]
- inhibition at 10 µM (SIRT2 [1]; [8]): 26.7%

Compound: COc1cccc(Cn2cnc3sc4c(c3c2=O)CCC(NCCc2cccnc2)C4)c1 (stereo not shown) [31h]
- inhibition at 10 µM (SIRT2 [1]; [8]): 40.5%

Compound: COc1ccccc1NC1CCc2c(sc3ncn(Cc4cccc5ccccc45)c(=O)c23)C1 (stereo not shown) [35b]
- inhibition at 10 µM (SIRT2 [1]; [8]): 22.3%

Compound: COc1ccccc1NC1CCc2c(sc3ncn(Cc4cccc(-c5ccccc5)c4)c(=O)c23)C1 (stereo not shown) [35i]
- inhibition at 10 µM (SIRT2 [1]; [8]): 26.4%

Compound: COc1cccc(NC2CCc3c(sc4ncn(Cc5cccc(-c6ccccc6)c5)c(=O)c34)C2)c1 (stereo not shown) [37i]
- inhibition at 10 µM (SIRT2 [1]; [8]): 29.6%

Compound: O=c1c2c3c(sc2ncn1Cc1cccc2cccnc12)CC(NC1CCCC1)CC3 (stereo not shown) [41e]
- inhibition at 10 µM (SIRT2 [1]; [8]): 30.5%

Compound: O=c1c2c3c(sc2ncn1Cc1cccc(-c2ccccc2)c1)CC(NC1CCCc2ccccc21)CC3 (stereo not shown) [46i]
- inhibition at 10 µM (SIRT2 [1]; [8]): 21.6%

Compound: COc1ccc2ccccc2c1Cn1cnc2sc(CCN(C)C)c(C)c2c1=O [57a]
- SIRT2 inhibitory activity (in words) (SIRT2 [1]): inactive

Compound: N#C/C(=C\c1ccc(-c2cc(Cl)ccc2Cl)o1)C(=O)Nc1cccc2ncccc12 [AGK2]
- IC50 (SIRT1 [5]): > 50000 nM
- effect on α-tubulin acetylation level [4]: showed significant increase of α-tubulin acetylation at 10 to 50 μM

Compound: O=c1[nH]c(=S)[nH]c(-c2ccccc2)c1Cc1c(O)ccc2ccccc12 [Cambinol, cambinol]
- IC50 (SIRT2 [6]): 51000 nM
- IC50 (SIRT1 [5]): 56000 nM

Compound: NC(=O)c1cccnc1 [Nicotinamide, nicotinamide]
- IC50 (SIRT1 [5]): 85000 nM

Compound: O=C(Nc1cnccc1Br)c1cccc(-c2ccc3ccccc3c2)c1 [compound 4]
- IC50 (SIRT2 [6]): 600 nM
- IC50 (SIRT1 [5]): > 100000 nM
- IC50 (SIRT3 [7]; differing in vitro assays): > 100000 nM

Compound: CSc1ccc(CSc2cccc(C(=O)Nc3ccc(C#N)cc3)c2)cc1 [compound 5]
- IC50 (SIRT2 [6]): 2400 nM
- SIRT1 inhibition @ 10 μM (SIRT1 [5]; 10 μM): 3%
- SIRT3 inhibition @ 10 μM (SIRT3 [7]; 10 μM): no inhibition

Compound: CC1(C)Cc2c(-c3ccc(Cl)cc3)n[nH]c2C(C(N)=O)C1 (stereo not shown) [compound 7]
- IC50 (SIRT2 [6]): 1700 nM
- IC50 (SIRT1 [5]): 800 nM

Compound: Cc1cc(C)nc(SCC(=O)Nc2ncc(Cc3cccc4ccccc34)s2)n1 [compound 8, SirReal2]
- IC50 (SIRT1 [5]): > 100000 nM
- IC50 (SIRT6): > 200000 nM

Source: publication PMC6014686, “Thienopyrimidinone Based Sirtuin-2 (SIRT2)-Selective Inhibitors Bind in the Ligand Induced Selectivity Pocket” (Journal of Medicinal Chemistry, 2017)
